Measurements reported in ChEMBL document CHEMBL1131258, “Synthesis and glutathione S-transferase structure-affinity relationships of nonpeptide and peptidase-stable glutathione analogues” (J Med Chem, 1998).

Tested on: glutathione S-transferase (Schistosoma japonicum); call rule not given here
Experiment: Affinity towards recombinant Glutathione S-transferase (GST) Enzyme; NA indicates No affinity

IC50, Not Active:
O=C(O)CCCCCC(CS)CCCCC(=O)O (stereo not given)
O=C(O)CC/C=C/C(CO)CCCCC(=O)O (stereo not given)
O=C(O)CCCCCCC(CS)CCCC(=O)O (stereo not given)
O=C(O)CCCCC(CS)CCCCC(=O)O
O=C(O)CC/C=C/C(CS)CCCCC(=O)O (stereo not given)
